From patent US20250345295A1, “LMK235 COMPOSITIONS AND METHODS” (UNM Rainforest Innovations, priority 2024, published 2025)
“And” between values parts separate entries of the source, which are not always exact repeats. Identical values can stand only once.

Tested on: differentially expressed genes in TG
Assay: RNAseq gene expression profiling of TG
Assay type: in vivo, mouse
Settings: for Log2FC Ascl1 / Log2FC Klf2 / Log2FC Klf4 / Log2FC Klf5 / Log2FC Klf6 / Log2FC Klf7 / Log2FC Klf9 / Log2FC Klf13 / Log2FC Klf15 / Log2FC Klf16 / Log2FC L-Myc (Mycl) / Log2FC Lin28b / Log2FC Myt1l / Log2FC N-Myc (Mycn) / Log2FC Nanog / Log2FC NeuroD1 / Log2FC Sirt1 / Log2FC Sox2 / Log2FC Sox11 / Log2FC Stat3 / Log2FC c-Myc (Myc): TG
Protocol: Gene expression profiling was performed on TG from mice with/without nerve injury during the acute phase (three weeks post injury) in TIC mice and after transition to chronic pain (10 weeks post injury) in FRICT-ION mice by Quick Biology Inc. (Monrovia, CA).
Total RNA from ipsilateral TG was isolated using the Rneasy Mini Kit (Qiagen, Valencia, CA). Gene expression profiling and analysis with RNA was done by Quick Biology Inc. (Monrovia, CA). RNAseq library preparation was performed by Quick Biology Inc. (Monrovia, CA), sequencing was performed using an Illumina HiSeq 4000 at 40 million reads per sample. The reads were first mapped to the latest UCSC transcript set using Bowtie2 version 2.1.0 and the gene expression level was estimated using RSEM v1.2.15. Differentially expressed genes were identified using the edgeR program. Genes showing altered expression with p<0.05 were considered differentially expressed.

[1] = TG RNAseq, LMK235-treated vs untreated FRICT-ION mice
[2] = TG RNAseq, male FRICT-ION mice treated with LMK235 vs Vehicle, week 10
[3] = TG RNAseq, male FRICT-ION mice treated with LMK235 vs naive, week 10
[4] = LMK235 Treated FRICT-ION versus Naive
[5] = LMK235 Treated FRICT-ION versus Untreated FRICT-ION

Structure (SMILES): Cc1cc(C)cc(C(=O)NOCCCCCC(=O)NO)c1 [LMK235, N-[[6-(Hydroxyamino)-6-oxohexyl]oxy]-3,5-dimethyl-benzamide]
- Nav3 downregulated, fold [1]: 1.19 fold
- Net1 upregulated, fold [1]: 1.12 fold
- Neurod4 upregulated, fold [1]: 1.57 fold
- Nf2 upregulated, fold [1]: 1.04 fold
- Ngef downregulated, fold [1]: 1.34 fold
- Nkain2 downregulated, fold [1]: 1.14 fold
- Nova1 upregulated, fold [1]: 1.04 fold
- Nras downregulated, fold [1]: 1.03 fold
- Nrg2 upregulated, fold [1]: 1.10 fold
- Nrg3 downregulated, fold [1]: 1.00 fold
- Ntrk1 upregulated, fold [1]: 1.80 fold
- Nts downregulated, fold [1]: 1.74 fold
- Scn2a Scn2a1 downregulated, fold [1]: 1.04 fold
- Scn3a downregulated, fold [1]: 1.01 fold
- Scn7a downregulated, fold [1]: 1.07 fold
- Scn8a upregulated, fold [1]: 1.05 fold
- Scn9a upregulated, fold [1]: 1.29 fold
- Trpc6 upregulated, fold [1]: 1.08 fold
- Trpm3 upregulated, fold [1]: 1.19 fold
- Trpm4 upregulated, fold [1]: 1.05 fold
- Trpv6 downregulated, fold [1]: 1.19 fold
- Fold change 1700047I17Rik2 [2]: 3.82 fold
- Fold change 8430408G22Rik [2]: 2.46 fold
- Fold change Acta2 [2]: 2.01 fold
- Fold change Amy2a5 [2]: 2.03 fold
- Fold change Armc3 [2]: 2.04 fold
- Fold change Asb4 [2]: 1.53 fold
- Fold change C1ql2 [2]: 2.34 fold
- Fold change C1ql4 [2]: 4.76 fold
- Fold change Calcb [2]: 2.17 fold
- Fold change Ccdc153 [2]: 2.32 fold
- Fold change Cckbr [2]: −2.32 fold
- Fold change Crhbp [2]: 2.79 fold
- Fold change Cutal [2]: 2.10 fold
- Fold change Cyp26b1 [2]: 2.99 fold
- Fold change Cytl1 [2]: 2.14 fold
- Fold change Dmrt3 [2]: 2.46 fold
- Fold change Eif3j2 [2]: 3.88 fold
- Fold change Evi2a-evi2b [2]: 136.10 fold
- Fold change Fev [2]: 2.35 fold
- Fold change Gata3 [2]: 3.74 fold
- Fold change Gh [2]: −25.22 fold
- Fold change Gm833 [2]: 2.45 fold
- Fold change Gm8221 [2]: 241.23 fold
- Fold change Gm13306 [2]: 48.23 fold
- Fold change Gpx2 [2]: 3.17 fold
- Fold change Gucy2f [2]: 2.13 fold
- Fold change H19 [2]: 2.05 fold
- Fold change Hdac5 [2]: −2.03 fold
- Fold change Hist2h3c2 [2]: 128.58 fold
- Fold change Hoxb9 [2]: −16.50 fold and −16.5 fold
- Fold change Hoxc8 [2]: −8.22 fold
- Fold change Hoxd8 [2]: −4.14 fold
- Fold change Irx4 [2]: 2.51 fold
- Fold change Isl1 [2]: 2.30 fold
- Fold change Kcnmb1 [2]: 2.15 fold
- Fold change Mgl2 [2]: 2.39 fold
- Fold change Myom1 [2]: 2.01 fold
- Fold change Nkx6-3 [2]: 2.10 fold
- Fold change Onecut3 [2]: 2.22 fold
- Fold change P2rx2 [2]: −1.84 fold
- Fold change P2rx4 [2]: −2.08 fold
- Fold change Pappa2 [2]: 2.16 fold
- Fold change Pde4c [2]: 2.45 fold
- Fold change Ppp1r1c [2]: 2.51 fold
- Fold change Sec16b [2]: 1.98 fold
- Fold change Serpina3h [2]: 2.51 fold
- Fold change Shox2 [2]: 2.49 fold
- Fold change Slc6a4 [2]: 4.38 fold
- Fold change Slc18a2 [2]: 2.01 fold
- Fold change Slfn4 [2]: −2.32 fold
- Fold change Sp8 [2]: 2.42 fold
- Fold change Tmprss11d [2]: 2.98 fold
- Fold change Tph2 [2]: 4.18 fold
- Fold change Tyrp1 [2]: 3.03 fold
- Fold change Vmn2r84 [2]: 2.71 fold
- Fold change lc6a2 [2]: 2.91 fold
- Gh downregulated, fold [2]: 25.22 fold
- Hoxb9 downregulated, fold [2]: 16.50 fold
- Hoxc8 downregulated, fold [2]: 8.22 fold
- Hoxd8 downregulated, fold [2]: 4.14 fold
- P2rx4 downregulated, fold [2]: 2.08 fold
- Slfn4 downregulated, fold [2]: 2.32 fold
- Fold change 1500015O10Rik [3]: 4.68 fold
- Fold change 4833423E24Rik [3]: 2.10 fold
- Fold change Ache [3]: −1.12 fold
- Fold change Ackr4 [3]: 3.74 fold
- Fold change Aqp1 [3]: 7.41 fold and 7.4 fold
- Fold change Calml4 [3]: 2.88 fold
- Fold change Car12 [3]: 6.21 fold
- Fold change Ccdc135 [3]: 2.84 fold
- Fold change Cldn1 [3]: 2.48 fold
- Fold change Cldn2 [3]: 8.46 fold
- Fold change Col8a2 [3]: 3.06 fold
- Fold change Crhr2 [3]: 2.35 fold
- Fold change Enpp2 [3]: 2.22 fold
- Fold change F5 [3]: 6.19 fold
- Fold change Fap [3]: 3.16 fold
- Fold change Folr1 [3]: 11.92 fold and 11.91 fold
- Fold change Gmnc [3]: 2.40 fold
- Fold change Gvin1 [3]: 5.55 fold
- Fold change Hdac5 [3]: −1.13 fold
- Fold change Hdac10 [3]: −1.20 fold
- Fold change Igfbpl1 [3]: 2.39 fold
- Fold change Il1a [3]: 2.21 fold
- Fold change Inmt [3]: 6.34 fold
- Fold change Kcne2 [3]: 17.29 fold
- Fold change Kcnj13 [3]: 7.84 fold
- Fold change Kl [3]: 5.00 fold
- Fold change Krt18 [3]: 6.56 fold
- Fold change Lbp [3]: 3.97 fold
- Fold change Lum [3]: 2.08 fold
- Fold change Mfrp [3]: 4.30 fold
- Fold change Otx2 [3]: 5.17 fold
- Fold change Postn [3]: 2.24 fold
- Fold change Prr32 [3]: 5.41 fold
- Fold change Rbm14-rbm4 [3]: 66.16 fold
- Fold change Slc4a5 [3]: 4.83 fold
- Fold change Sostdc1 [3]: 15.70 fold
- Fold change Tgtp1 [3]: 2.49 fold
- Fold change Tmem72 [3]: 6.47 fold
- Fold change Tmprss11a [3]: 37.90 fold
- Fold change Tnfsf13 [3]: 2.14 fold
- Fold change Ttr [3]: 23.21 fold
- Fold change Wfdc2 [3]: 4.61 fold
- Log2FC Ascl1 [4]: 1.16 Log2FC
- Log2FC Klf2 [4]: −1.57 Log2FC
- Log2FC Klf4 [4]: −1.23 Log2FC
- Log2FC Klf5 [4]: 1.25 Log2FC
- Log2FC Klf6 [4]: 1.03 Log2FC
- Log2FC Klf7 [4]: 1.12 Log2FC
- Log2FC Klf9 [4]: −1.03 Log2FC
- Log2FC Klf13 [4]: −1.16 Log2FC
- Log2FC Klf15 [4]: −1.26 Log2FC
- Log2FC Klf16 [4]: −1.08 Log2FC
- Log2FC L-Myc (Mycl) [4]: 1.08 Log2FC
- Log2FC Lin28b [4]: −1.13 Log2FC
- Log2FC Myt1l [4]: 1.03 Log2FC
- Log2FC N-Myc (Mycn) [4]: 1.63 Log2FC
- Log2FC Nanog [4]: 1.01 Log2FC
- Log2FC NeuroD1 [4]: 1.26 Log2FC
- Log2FC Sirt1 [4]: 1.17 Log2FC
- Log2FC Sox2 [4]: 1.25 Log2FC
- Log2FC Sox11 [4]: 1.05 Log2FC
- Log2FC Stat3 [4]: −1.00 Log2FC
- Log2FC c-Myc (Myc) [4]: 1.14 Log2FC
- Log2FC Ascl1 [5]: 1.05 Log2FC
- Log2FC Klf2 [5]: 1.20 Log2FC
- Log2FC Klf4 [5]: 1.13 Log2FC
- Log2FC Klf5 [5]: −1.30 Log2FC
- Log2FC Klf6 [5]: 1.05 Log2FC
- Log2FC Klf7 [5]: 1.15 Log2FC
- Log2FC Klf9 [5]: −1.05 Log2FC
- Log2FC Klf13 [5]: −1.17 Log2FC
- Log2FC Klf15 [5]: −1.16 Log2FC
- Log2FC Klf16 [5]: −1.24 Log2FC
- Log2FC L-Myc (Mycl) [5]: −1.54 Log2FC
- Log2FC Lin28b [5]: 1.07 Log2FC
- Log2FC Myt1l [5]: −1.17 Log2FC
- Log2FC N-Myc (Mycn) [5]: 1.00 Log2FC
- Log2FC Nanog [5]: −1.03 Log2FC
- Log2FC NeuroD1 [5]: 1.21 Log2FC
- Log2FC Sirt1 [5]: 1.02 Log2FC
- Log2FC Sox2 [5]: 1.07 Log2FC
- Log2FC Sox11 [5]: −1.21 Log2FC
- Log2FC Stat3 [5]: −1.04 Log2FC
- Log2FC c-Myc (Myc) [5]: −1.03 Log2FC
